Experimental data as given in patent US4742064A, “Antiviral carbocyclic analogs of xylofuranosylpurines” (Regents of the University of Minnesota, priority 1985, dated 1988).
pIC50: −log10 of the molar value. “Also recorded” adds a separate entry of the source.

Experiments:
[1] = system: P-388 mouse leukemia cells; experiment: P-388 mouse leukemia cell culture cytotoxicity assay; format: cell-based; conditions: for pIC50: Mus musculus, P388, P-388 leukemia cells in culture, read-out: ED50 (inhibitory concentration, cytotoxicity); for cytotoxicity (in words) / cytotoxicity relative to the corresponding non-aza analogs 9a and 10a (in words): P-388 mouse leukemia cell culture
Description: *Assay Technique: R. G. Almquist and R. Vince, J. Med. Chem., 16, 1396

HSV-1 (E-377) = experiment: cytopathogenic effects (CPE)-inhibition procedure, HSV-1, Vero cells; conditions: for VR (virus rating), HSV-1 (E-377): HSV-1 strain E-377, Vero cell monolayers, VR ≥ 1.0 = definite activity, 0.5-0.9 marginal to moderate, < 0.5 usually no significant activity; for antiviral activity against HSV-1 (in words): Table II data
Description: (§1) The analogs were evalulated by a cytopathogenic effects (CPE)-inhibition procedure. The host cell culture systems employed were pre-grown Vero cell monolayers.
(§2) *VR = virus rating: A measurement of selective antiviral activity which
(§3) takes into account the degree of inhibition of virusinduced cytopathogeni
(§4) effects (CPE) and the degree of cytotoxicity produced by the test
(§5) compound, determined by a modification of the method of Ehrlich et al.
(§6) definite (+) antiviral activity, a VR of 0.5-0.9 indicates marginal to
(§7) moderate (+) antiviral activity, and a VR < 0.5 usually indicates no (-)
significant antiviral activity.

HSV-2 (MS) = experiment: cytopathogenic effects (CPE)-inhibition procedure, HSV-2, Vero cells; conditions: for VR (virus rating), HSV-2 (MS): HSV-2 strain MS, Vero cell monolayers, VR ≥ 1.0 = definite activity, 0.5-0.9 marginal to moderate, < 0.5 usually no significant activity; for antiviral activity against HSV-2 (in words): Table II data
Description: as §1, §2, §3, §4, §5, §6, §7
significant antiviral activity.

influenza virus = experiment: activity against an influenza virus; format: cell-based
HSV-1 = conditions: prior literature; cited from earlier work
HSV-2 = conditions: prior literature; cited from earlier work

| SMILES | pIC50 [1] | VR (virus rating), HSV-1 (E-377) (HSV-1 (E-377)) | antiviral activity against HSV-1 (in words) (HSV-1 (E-377)) | cytotoxicity (in words) [1] | VR (virus rating), HSV-2 (MS) (HSV-2 (MS)) | also measured |
| --- | --- | --- | --- | --- | --- | --- |
| Nc1nc(Cl)c2ncn([C@@H]3C[C@H](CO)[C@H](O)[C@H]3O)c2n1 (relative stereo) [Compound 8, (d1)-(1 α, 2 β, 3 α, 5 α)-3-(2-Amino-6-chloro-9H-purin-9-yl)-5-(hydroxymethyl)-1,2-cyclopentanediol] | 3.66 |  |  |  |  |  |
| Nc1nc(N)c2ncn([C@@H]3C[C@H](CO)[C@H](O)[C@H]3O)c2n1 (relative stereo) [Compound 10a] | 4.41 | 2.7 | substantial antiviral activity |  |  |  |
| Nc1nc2c(nnn2[C@@H]2C[C@H](CO)[C@H](O)[C@H]2O)c(=O)[nH]1 (relative stereo) [Compound 13a, (d1)-5-Amino-3,6-dihydro-3-[(1 α,2 β,3 α,5 α)-2,3-dihydroxy-4-(hydroxymethyl)cyclopentyl]-7H-1,2,3-triazalo[4,5-d]pyrimidin-7-one] | 5.80 | 2.4 | substantial antiviral activity | inhibition at the lowest concentration; also recorded: significant cytotoxicities | 1.3 | cytotoxicity relative to the corresponding non-aza analogs 9a and 10a (in words) [1]: more active; antiviral activity against HSV-2 (in words) (HSV-2 (MS)): active; activity against an influenza virus (in words) (influenza virus): significant activity |
| Nc1nc(Cl)c2nnn([C@@H]3C[C@H](CO)[C@H](O)[C@H]3O)c2n1 (relative stereo) [Compound 11, (d1)-(1 α,2 β,3 α,5 α)-3-(5-Amino-7-Chloro-3H-1,2,3-triazalo [4,5-d]pyrimidin-3-yl)-5-(hydroxymethyl)-1,2-cyclopentanediol] | 4.30 |  |  |  |  |  |
| Nc1nc2c(ncn2[C@@H]2C[C@H](CO)[C@H](O)[C@H]2O)c(=O)[nH]1 (relative stereo) [Compound 9a, (d1)-2-Amino-1,9-dihydro-9-[(1 α,2 β,3 α,4 α)-2,3-dihydroxy-4-(hydroxymethyl)cyclopentyl]-6H-purin-6-one] | 5.05 | 5.6 | substantial antiviral activity | significant cytotoxicities | 3.9 | antiviral activity against HSV-2 (in words) (HSV-2 (MS)): active; profile of activity in the antiviral assay (in words) (HSV-1 (E-377); comparison among analogs of Table II): best profile of activity |
| Nc1nc(N)c2nnn([C@@H]3C[C@H](CO)[C@H](O)[C@H]3O)c2n1 (relative stereo) [Compound 14a, (d1)-(1 α,2 β,3 α,5 α)-3-(5,7-Diamino-3H-1,2,3-triazalo[4,5-d]pyrimidin-3-yl)-5-(hydroxymethyl)-1,2-cyclopentanediol] | 5.28 | 2.0 | substantial antiviral activity | significant cytotoxicities |  | cytotoxicity relative to the corresponding non-aza analogs 9a and 10a (in words) [1]: more active |
| Nc1ncnc2c1ncn2[C@@H]1O[C@H](CO)[C@@H](O)[C@@H]1O.O [Ara-A, 9-β-D-arabinofuranosyladenine monohydrate, reference compound] |  | 1.7 |  |  | 1.6 |  |
| COc1nc(N)nc2c1nnn2[C@@H]1C[C@H](CO)[C@H](O)[C@H]1O (relative stereo) [Compound 12, (d1)-(1 α,2 β,3 α,5 α)-3-(5-Amino-7-methoxy-3H-1,2,3-triazalo [4,5-d]pyrimidin-3-yl)-5-(hydroxymethyl)-1,2-cyclopentanediol] | 4.20 |  |  |  |  |  |
| Nc1nc(N)c2ncn([C@@H]3C[C@H](CO)[C@@H](O)[C@@H]3O)c2n1 (relative stereo) |  |  |  |  |  | activity against HSV-1 (in words) (HSV-1): exhibited activity; activity against HSV-2 (in words) (HSV-2): inactive |
